Results published in paper PMC11190964 (Journal of medicinal chemistry, 2023).
Values belong to the molecule of their own block, whether it stands above or below them.

What was measured:
MM.1S cells [1] = test: Proliferation / growth rate inhibition assay; assay type: cell-based; conditions: for antiproliferative activity / toxicity, single agent: comparator inhibitors, single-agent treatment
JNK2 [2] = target: T1, JNK2 (Homo sapiens, UniProt P45984); test: Pull-down competition assay with biotin-JNK-IN-7, JNK2; assay type: cell-based; conditions: MM.1S cells, 6 h; both JNK1 and JNK2
Target sequence in this assay (P45984 whole entry): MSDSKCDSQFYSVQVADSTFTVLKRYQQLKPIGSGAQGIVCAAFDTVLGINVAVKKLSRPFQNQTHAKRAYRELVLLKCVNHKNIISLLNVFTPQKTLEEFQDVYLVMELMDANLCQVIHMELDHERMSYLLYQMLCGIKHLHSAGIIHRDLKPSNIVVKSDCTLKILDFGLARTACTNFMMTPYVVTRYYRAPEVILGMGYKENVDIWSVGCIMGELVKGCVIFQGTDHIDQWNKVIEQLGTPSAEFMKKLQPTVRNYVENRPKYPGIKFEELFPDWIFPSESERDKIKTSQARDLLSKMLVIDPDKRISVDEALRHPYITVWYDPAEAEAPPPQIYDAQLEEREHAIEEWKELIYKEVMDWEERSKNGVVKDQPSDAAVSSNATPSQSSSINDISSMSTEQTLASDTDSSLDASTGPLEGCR

JNK2 [3] = target: T1, JNK2; test: PhosphoSens kinetic assay; assay type: biochemical; conditions: JNK1 and JNK2
Target sequence in this assay (P45984 whole entry): as above

MM.1S cells [4] = test: Apoptosis; assay type: cell-based; conditions: PARP cleavage, caspase 3 cleavage, Annexin V/PI staining
[5] = test system: Bortezomib-resistant ANBL6 cells; test: Antiproliferative assay, Bortezomib-resistant ANBL6; assay type: cell-based; conditions: parental ANBL6 and Bortezomib-resistant ANBL6 cells
[6] = test system: panel of more than 400 kinases; test: Kinome-wide selectivity panel; conditions: strong binding to EGFR, CK1, DDR1, CDK7, Aurora A and B
JNK2 [7] = target: T1, JNK2; test: Z′-Lyte fixed time point kinase assay, JNK2; conditions: fixed time point biochemical kinase assay
Target sequence in this assay (P45984 whole entry): as above

MDA-MB-231 cells = test: Vacuole formation; assay type: cell-based
JNK2 [8] = target: T1, JNK2; test: Mass labeling of recombinant JNK2 protein; assay type: binding; conditions: room temperature, 60 min incubation; trypsin digest, CE-MS/MS
Target sequence in this assay (P45984 4-364): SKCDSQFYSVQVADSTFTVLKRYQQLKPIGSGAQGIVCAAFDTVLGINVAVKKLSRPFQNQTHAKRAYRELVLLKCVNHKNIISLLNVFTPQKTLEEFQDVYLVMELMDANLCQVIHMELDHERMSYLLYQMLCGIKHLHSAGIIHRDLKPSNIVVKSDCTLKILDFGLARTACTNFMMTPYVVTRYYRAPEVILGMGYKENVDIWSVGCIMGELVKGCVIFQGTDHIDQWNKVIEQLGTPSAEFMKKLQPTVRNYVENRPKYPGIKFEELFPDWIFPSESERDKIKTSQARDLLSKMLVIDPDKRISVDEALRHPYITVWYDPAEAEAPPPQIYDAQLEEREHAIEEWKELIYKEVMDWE

PIKFYVE = PIKFYVE (Homo sapiens, UniProt Q9Y2I7); test: PIKFYVE NanoBRET target engagement assay; assay type: cell-based; conditions: transfected HEK293T cells, 3 h
PIKFYVE, sequence (Q9Y2I7 whole entry): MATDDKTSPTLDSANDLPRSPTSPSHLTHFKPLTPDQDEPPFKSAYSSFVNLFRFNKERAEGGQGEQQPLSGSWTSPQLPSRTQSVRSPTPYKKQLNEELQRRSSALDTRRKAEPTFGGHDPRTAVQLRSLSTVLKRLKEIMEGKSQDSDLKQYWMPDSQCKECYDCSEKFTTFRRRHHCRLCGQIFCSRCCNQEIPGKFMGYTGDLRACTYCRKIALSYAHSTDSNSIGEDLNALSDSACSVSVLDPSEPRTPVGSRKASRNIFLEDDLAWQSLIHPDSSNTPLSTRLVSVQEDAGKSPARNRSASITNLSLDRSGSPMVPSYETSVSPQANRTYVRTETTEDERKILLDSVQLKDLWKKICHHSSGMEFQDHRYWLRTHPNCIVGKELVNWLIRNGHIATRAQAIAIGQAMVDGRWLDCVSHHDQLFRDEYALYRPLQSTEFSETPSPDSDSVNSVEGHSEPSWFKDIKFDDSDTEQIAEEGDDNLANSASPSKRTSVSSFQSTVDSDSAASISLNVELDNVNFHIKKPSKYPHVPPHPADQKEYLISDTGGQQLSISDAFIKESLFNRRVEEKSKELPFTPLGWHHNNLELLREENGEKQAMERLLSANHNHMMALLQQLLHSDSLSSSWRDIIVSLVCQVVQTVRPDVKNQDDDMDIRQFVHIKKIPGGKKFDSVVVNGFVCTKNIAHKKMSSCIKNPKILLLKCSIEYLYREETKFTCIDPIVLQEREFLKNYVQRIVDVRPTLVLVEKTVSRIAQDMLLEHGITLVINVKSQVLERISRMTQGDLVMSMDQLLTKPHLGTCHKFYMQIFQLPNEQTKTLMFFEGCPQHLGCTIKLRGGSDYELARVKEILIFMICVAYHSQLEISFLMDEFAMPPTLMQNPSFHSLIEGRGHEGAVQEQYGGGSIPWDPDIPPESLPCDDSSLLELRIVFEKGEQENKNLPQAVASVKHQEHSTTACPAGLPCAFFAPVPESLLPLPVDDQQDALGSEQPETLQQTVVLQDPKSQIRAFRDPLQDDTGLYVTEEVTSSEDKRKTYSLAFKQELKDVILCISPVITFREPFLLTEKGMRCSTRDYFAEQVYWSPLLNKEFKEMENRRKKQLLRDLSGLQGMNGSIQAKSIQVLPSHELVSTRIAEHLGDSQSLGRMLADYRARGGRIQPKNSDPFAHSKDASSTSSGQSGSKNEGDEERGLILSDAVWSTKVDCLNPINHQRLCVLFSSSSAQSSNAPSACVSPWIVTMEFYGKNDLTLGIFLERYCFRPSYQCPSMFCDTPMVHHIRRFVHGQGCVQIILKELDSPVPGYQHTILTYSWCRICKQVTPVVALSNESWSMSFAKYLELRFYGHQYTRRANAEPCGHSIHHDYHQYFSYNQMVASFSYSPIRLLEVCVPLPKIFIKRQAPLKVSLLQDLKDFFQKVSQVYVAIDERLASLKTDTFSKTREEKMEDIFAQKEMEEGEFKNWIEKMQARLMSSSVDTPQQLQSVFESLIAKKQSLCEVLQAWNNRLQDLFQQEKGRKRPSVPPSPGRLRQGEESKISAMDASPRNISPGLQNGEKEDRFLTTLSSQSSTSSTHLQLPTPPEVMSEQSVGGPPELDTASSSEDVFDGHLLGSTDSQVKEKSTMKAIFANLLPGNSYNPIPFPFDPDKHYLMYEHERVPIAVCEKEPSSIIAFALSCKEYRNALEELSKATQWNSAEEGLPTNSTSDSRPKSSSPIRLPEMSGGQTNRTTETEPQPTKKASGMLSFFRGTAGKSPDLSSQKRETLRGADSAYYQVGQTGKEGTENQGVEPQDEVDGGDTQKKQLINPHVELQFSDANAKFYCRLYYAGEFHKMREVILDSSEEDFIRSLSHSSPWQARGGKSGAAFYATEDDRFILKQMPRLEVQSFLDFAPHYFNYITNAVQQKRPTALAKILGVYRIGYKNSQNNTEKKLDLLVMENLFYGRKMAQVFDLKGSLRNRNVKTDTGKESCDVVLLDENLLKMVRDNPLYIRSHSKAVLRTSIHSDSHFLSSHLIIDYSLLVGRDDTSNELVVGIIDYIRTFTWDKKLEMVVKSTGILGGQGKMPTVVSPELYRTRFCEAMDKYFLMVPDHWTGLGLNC

JNK1 = JNK1 (Homo sapiens, UniProt P45983); test: JNK1 NanoBRET target engagement assay; assay type: cell-based; conditions: HEK293T cells; compared with JNK-IN-8
JNK1, sequence (P45983 whole entry): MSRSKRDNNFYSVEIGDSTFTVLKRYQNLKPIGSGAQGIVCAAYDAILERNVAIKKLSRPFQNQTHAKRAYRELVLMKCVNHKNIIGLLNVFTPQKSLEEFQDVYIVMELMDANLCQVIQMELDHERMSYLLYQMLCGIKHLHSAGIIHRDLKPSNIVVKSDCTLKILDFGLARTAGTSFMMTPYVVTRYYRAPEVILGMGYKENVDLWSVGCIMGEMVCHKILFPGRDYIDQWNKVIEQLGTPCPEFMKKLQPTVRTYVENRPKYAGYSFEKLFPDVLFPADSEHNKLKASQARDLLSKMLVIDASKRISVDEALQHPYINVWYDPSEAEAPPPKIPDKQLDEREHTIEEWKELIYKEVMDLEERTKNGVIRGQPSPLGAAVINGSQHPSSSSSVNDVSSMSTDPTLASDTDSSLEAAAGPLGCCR

[9] = test system: HAP1 parental cells and JNK2-knockout cell lines; test: Antiproliferative activity in HAP1 parental and JNK2-knockout cells; assay type: cell-based

Structure (SMILES): O[C@H]1CC[C@H](Nc2ncc3nc(Nc4c(F)cc(F)cc4F)n([C@H]4CCOC4)c3n2)CC1 [CC930]
protection from YL5084-mediated cell killing (MM.1S cells [1]; 10 μM pretreatment, MM.1S cells): did not protect
antiproliferative activity / toxicity, single agent (MM.1S cells [1]): did not exhibit antiproliferative activity even at micromolar concentrations

potency JNK2 versus JNK1 in kinetic assay (JNK2 [3]): almost equipotent against both
Structure (SMILES): Cc1cc(NC(=O)c2cccc(NC(=O)/C=C/CN(C)C)c2)ccc1Nc1nccc(-c2cccnc2)n1 [JNK-IN-8]
engagement of JNK1 and JNK2 in pull down (JNK2 [2]): engaged both JNK1 and JNK2 at the same concentration
induction of apoptosis (MM.1S cells [4]): failed to induce apoptotic cell death to the same level
antiproliferative effect in ANBL6 cells [5]: minimal effect

Structure (SMILES): CN(C)C/C=C/C(=O)Nc1ccc(C(=O)Nc2cccc(Nc3nccc(-c4c(-c5ccccc5)nn5ccccc45)n3)c2)cc1 [THZ-3–60-1]
kinome-wide selectivity [6]: poor kinome-wide selectivity
selectivity JNK2 versus JNK1 (JNK2 [7]): exhibited selectivity for JNK2 versus JNK1

Structure (SMILES): O=c1ncn2nc(Sc3ccc(F)cc3F)ccc2c1-c1c(Cl)cccc1Cl [VX745]
antiproliferative activity / toxicity, single agent (MM.1S cells [1]): not toxic

covalent modification site on JNK2 (JNK2 [8]): exclusive modification on JNK2 Cys116
Structure (SMILES): CN(C)C/C=C/C(=O)Nc1ccc(C(=O)N2CC[C@H](Nc3nccc(-c4c(-c5ccccc5)nn5ccccc45)n3)C2)cc1 [YL2056, (S,E)-4-(Dimethylamino)-N-[4-(3-{[4-(2-phenylpyrazolo[1,5-a]pyridin-3-yl)pyrimidin-2-yl]amino}pyrrolidine-1-carbonyl)phenyl]but-2-enamide]
vacuole formation (MDA-MB-231 cells; MDA-MB-231, phenotype of PIKFYVE inhibition): induced
PIKFYVE binding in NanoBRET (PIKFYVE): binds to PIKFYVE more strongly than its reversible counterpart

JNK1 engagement in NanoBRET (JNK1): significantly less engagement of JNK1
Structure (SMILES): C[C@H]1CN(C(=O)c2ccc(NC(=O)/C=C/CN(C)C)cc2)C[C@H]1Nc1nccc(-c2c(-c3ccccc3)nn3ccccc23)n1 [YL5084, (E)-4-(Dimethylamino)-N-[4-((3S,4S)-3-methyl-4-{[4-(2-phenylpyrazolo[1,5-a]pyridin-3-yl)pyrimidin-2-yl]amino}pyrrolidine-1-carbonyl)phenyl]but-2-enamide]
vacuole formation (MDA-MB-231 cells; up to a concentration of 4 μM): did not induce vacuole formation
antiproliferative activity, parental vs JNK2-knockout [9]: equipotent antiproliferative activity
GR50 (antiproliferative) (MM.1S cells [1]; multiple myeloma (MM) cell lines, 72 h): 200 to 300 nM
induction of apoptosis (MM.1S cells [4]): induced apoptosis

Structure (SMILES): C[C@H]1CN(C(=O)c2ccc(NC(=O)CCCN(C)C)cc2)C[C@H]1Nc1nccc(-c2c(-c3ccccc3)nn3ccccc23)n1 [YL5084R, 4-(Dimethylamino)-N-[4-((3S,4S)-3-methyl-4-{[4-(2-phenylpyrazolo[1,5-a]pyridin-3-yl)pyrimidin-2-yl]amino}pyrrolidine-1-carbonyl)phenyl]butanamide]
fold weaker antiproliferative activity than YL5084 (MM.1S cells [1]; multiple myeloma (MM) cell lines, GR50): 15 fold
